Experimental findings from PMC5572722, “Dimerization in tailoring uptake efficacy of the HSV-1 derived membranotropic peptide gH625” (Scientific Reports, 2017) are described below.

A short description of data set [1]: Circular dichroism: helix content and θ222/θ208 ratio. It is filed as physicochemical. The settings on record: CD, peptide 8 μM; for helix content in 20% TFE: room temperature, from MRE at 222 nm; for helix content in 20% TFE / ratio θ222/θ208 in TFE: 20% TFE; for ratio θ222/θ208 in TFE / ratio θ222/θ208 in lipids / ratio θ222/θ208 in buffer: <0.8 monomeric, >1.0 oligomeric state; for helix content in DOPG/Chol / ratio θ222/θ208 in lipids: DOPG/Chol 60/40 LUVs; for helix content in DOPG/Chol: P/L 0.05, from MRE at 222 nm; for ratio θ222/θ208 in lipids: P/L 0.05; for helix content in buffer: sodium phosphate 5 mM pH 7.4, room temperature, from MRE at 222 nm (Chakrabartty et al.). From the text:
The circular dichroism (CD) analysis was used to reveal changes of the secondary structure with respect to the parent peptide in different experimental conditions (Figure 7). […] The helix content is probably underscored because oligomerization processes are taking place in this condition. The CD spectra were also obtained in presence of DOPG/Chol.
Figure 7 Circular dichroism spectra of gH625, gH625-H7 and gH625-G7 in buffer (A), 20% TFE (B) and DOPG/Chol 60/40 (mol/mol) LUVs (C). Peptide concentration used is 8 μM in all conditions tested and the peptide/lipid ratio is 0.05 in condition C.
The ratio of the ellipticities at 222 and 208 nm can be utilized to distinguish between monomeric and oligomeric states of helices, [49]; when the ratio θ222/θ208 is lower than 0.8, the peptide is essentially in its monomeric state, and when the ratio exceeds the value of 1.0, it is in its oligomeric state. The data reveal that in presence of TFE and of lipids, gH625 adopts an α-helical conformation with the monomer/oligomer equilibrium shifted toward the oligomeric state with a ratio θ222/θ208 of approximately 0.9 in both conditions, while in buffer the ratio decreases to 0.5 indicating a monomeric state. […] (Figure 7B,C). We repeated the experiment after centrifugation to remove eventual precipitated peptides from solution, however, the aggregates were molecular in size, and centrifugation had no effect on the spectra. The same analysis were performed on gH625-H7. The peptide adopts an α-helical conformation also in buffer, with a ratio θ222/θ208 of approximately 0.7, 0.9 and 1.2 in buffer, TFE and lipids.
CD spectra were recorded in a 1.0 or 0.1 cm quartz cell at room temperature using a Jasco J-715 spectropolarimeter. The spectra are an average of 3 consecutive scans from 260 to 195 nm, recorded with a band width of 3 nm, a time constant of 16 s, and a scan rate of 10 nm/min. Spectra were recorded and corrected for the background contributions by substracting blank samples. Mean residue ellipticities (MRE) were calculated using the expression MRE = Obsd/(lcn), where Obsd is the ellipticity measured in millidegrees, l is the path length of the cell in cm, c is the peptide concentration in mol/l, and n is the number of amino acid residues in the peptide. The peptide concentration was 8 μM both in buffer (sodium phosphate 5 mM pH 7.4) and at different percentages of TFE. Peptide samples in DOPG/Chol (60/40 mol/mol) were prepared using the following protocol[32]: all peptides were first dissolved in TFE; immediately after preparation, the peptide solution was added to an equal volume of a chloroform/methanol solution containing the appropriate lipid concentration; solutions were dried with a nitrogen gas stream and lyophilized overnight; the dry samples were rehydrated with buffer to yield a final peptide concentration of 8 μM with a P/L ratio of 0.05 and extruded. The percentage of helix was calculated from measurements of their mean residue ellipticity at 222 nm[47]. We used [ϑ]222 values of 0 and −40.000(1–2.5/n) deg cm^2 dmol^−1 per amino acid residue for 0% and 100% helicity; n is the number of amino acid residues.

Data set [2] can be described thus: Acceptor photobleaching FRET, GUV fusion. The conditions noted are these: NBD/Rhodamine GUVs mixed 1:4 with unlabelled GUVs, peptide:GUVs ratio 0.5. From the text: Figure 10 Mean fluorescence of GUVs suspension resulting after gH625 or gH625-H7 administration, calculated by the AccPbFRET plug in of ImageJ. The FRET efficiency E is 0.729, calculated as follows: E = 1 − (F Donor quenched by acceptor/F Donor de quenched) (A). Time course of FRET effect due to gH625 or gH625-H7 administration to GUVs. Values are expressed as integrated density, defined as the mean gray value per the mean area. Each time point represents the same field acquired in both channels. Each data set represents the mean of at least 10 GUVs for each field (B,C).
To evaluate the fusion of GUVs due to the addition of gH625 and gH625-H7, a slightly modified protocol for acceptor photobleaching FRET was performed. […] An aliquot of the mix was charged in the Burker’s chamber under Axioskop (Zeiss) fluorescence microscope; images were acquired using Axiocam Mrc5 CCD camera (Zeiss) in both at 525 nm and 615 nm and analysed with the Physiology module of Axiovision software 4.8 (Zeiss) to calculate the basic fluorescence of the donor. Samples were then treated with gH625 and gH625-H7 to a peptide:GUVs ratio of 0.5 and images were immediately acquired to calculate the fluorescence of the donor and the photobleaching of the acceptor (only used as a control for the amount of bleaching) after the exposure to peptides. […]

Data set [3] is described as follows: Lipid mixing (NBD/Rho FRET membrane fusion). The settings on record: lipid 0.1 mM, 25 °C. From the text: In order to gain insight into the ability to interact and perturb the lipid membrane, nitrobenzoxadiazole (NBD) and Rhodamine (Rho) were used as the donor and acceptor of fluorescence energy transfer. Dilution of labelled vesicles caused by peptide induced membrane fusion, determines a larger average distance between fluorescent and quenching lipids and thus a reduction in the fluorescence energy transfer efficiency. […] The three peptides interact more strongly with LUVs containing cholesterol, confirming the preference for more rigid membranes.
Figure 1 Peptide-promoted membrane fusion as determined by lipid mixing of gH625 (A), gH625-H7 (B) and gH625-G7 (C) in LUVs composed of: DOPG, DOPG/Chol 60/40 (mol/mol) and DOPC/Chol 60/40 (mol/mol). […] Lipid concentration is 0.1 mM. […] Panel D reports the peptide-promoted membrane fusion of the three peptides in DOPG/Chol LUVs 60/40 (mol/mol).
A cut off filter at 515 nm was used.

Positions of bridges follow the written chain, without caps; N, C: chain ends. Residues, ends and D or L forms follow the SMILES beside them. Chains are numbered I, II in the order given. No end group written: not given here.

Consider `CC[C@H](C)[C@H](NC(=O)[C@H](CC(C)C)NC(=O)[C@H](C)NC(=O)[C@H](CC(N)=O)NC(=O)[C@H](Cc1ccc(O)cc1)NC(=O)[C@H](Cc1c[nH]cn1)NC(=O)[C@H](C)NC(=O)[C@H](Cc1c[nH]c2ccccc12)NC(=O)[C@H](CCCNC(=N)N)NC(=O)[C@@H](NC(=O)[C@H](CC(C)C)NC(=O)[C@@H](NC(=O)[C@H](CO)NC(=O)[C@H](C)NC(=O)[C@H](CC(C)C)NC(=O)CNC(=O)[C@@H](N)Cc1c[nH]cn1)[C@@H](C)O)[C@@H](C)O)C(=O)N[C@@H](CCCNC(=N)N)C(=O)N[C@@H](C)C(=O)N[C@@H](Cc1ccccc1)C(N)=O` [gH625] (H-HGLASTLTRWAHYNALIRAF-NH2), for which, in data set [1], the “helix content in 20% TFE” value was found to be 22%, the “ratio θ222/θ208 in TFE” value is “approximately 0.9”, the “helix content in DOPG/Chol” value was 37% and the “ratio θ222/θ208 in lipids” value is “approximately 0.9”. Moreover, in data set [1], the “ratio θ222/θ208 in buffer” value worked out at 0.5 and the “helix content in buffer” value is 5%. Moreover, the “increase of donor (NBD) fluorescence compared to GUVs alone” value in data set [2] is recorded as 3.71 fold. In data set [3] (average of three experiments), the “lipid mixing activity in DOPG LUVs” value is “less active than the other two”.

For “I: HGLASTLTRWAHYNALIRAFGCGKKKK-NH2 / II: HGLASTLTRWAHYNALIRAFGCGKKKK-NH2 (disulfide I:22-II:22) [gH625-H7]”, in data set [1], the “helix content in 20% TFE” value was “approximately 20%”, the “ratio θ222/θ208 in TFE” value is given as “approximately 0.9”, the “ratio θ222/θ208 in lipids” value is around 1.2 and the “ratio θ222/θ208 in buffer” value is “approximately 0.7”. The “helix content in buffer” value in data set [1] is 8%. In data set [2], the “increase of donor (NBD) fluorescence compared to GUVs alone” value turned out to be 3.92 fold. The “lipid mixing activity in DOPG/Chol LUVs” value in data set [3] (compared to the other peptides) is “significantly higher activity”.

As for `CC[C@H](C)[C@H](NC(=O)[C@H](CC(C)C)NC(=O)[C@H](C)NC(=O)[C@H](CC(N)=O)NC(=O)[C@H](Cc1ccc(O)cc1)NC(=O)[C@H](Cc1c[nH]cn1)NC(=O)[C@H](C)NC(=O)[C@H](Cc1c[nH]c2ccccc12)NC(=O)[C@H](CCCNC(=N)N)NC(=O)[C@@H](NC(=O)[C@H](CC(C)C)NC(=O)[C@@H](NC(=O)[C@H](CO)NC(=O)[C@H](C)NC(=O)[C@H](CC(C)C)NC(=O)CNC(=O)[C@@H](N)Cc1c[nH]cn1)[C@@H](C)O)[C@@H](C)O)C(=O)N[C@@H](CCCNC(=N)N)C(=O)N[C@@H](C)C(=O)N[C@@H](Cc1ccccc1)C(=O)NCC(=O)NCC(=O)NCC(=O)N[C@@H](CCCCN)C(=O)N[C@@H](CCCCN)C(=O)N[C@@H](CCCCN)C(=O)N[C@@H](CCCCN)C(N)=O` [gH625-G7] (H-HGLASTLTRWAHYNALIRAFGGGKKKK-NH2), in data set [1], the “helix content in 20% TFE” value is 36%, the “ratio θ222/θ208 in TFE” value stood at 0.7, the “helix content in DOPG/Chol” value is 55% and the “ratio θ222/θ208 in lipids” value was determined as 1.0. In addition, the “helix content in buffer” value in data set [1] is 7%.
